Measured values taken from patent US20250205155A1, “FORMULATIONS COMPRISING MELPHALAN FLUFENAMIDE AND CYCLODEXTRIN” (Oncopeptides Innovation AB, priority 2022, published 2025).
Where “and” joins values, the source holds several entries; their conditions need not be identical. Equal values may be shown once. Where a name gives a salt, the structure may show the parent alone. Read-outs that look alike come from different tables or passages of the source.

Legend:
[1] = Stability of Ex 1 / Ex 2 propylene glycol liquid formulations diluted in γCD saline or glucose solution; assay type: physicochemical
Method: Stock solutions containing 16 mg/mLγCD in […].
The samples were mixed by vortex for 10 seconds and then filtered through a 0.45 μm PTFE filter. The filtrates were analysed by HPLC immediately after sample preparation (i.e. at t0), and then after 2 hours, 5 hours, 7 hours or 18 hours of storage at RT (approximately 23° C.).

[2] = Stability of melphalan flufenamide drug product in γCD 5% glucose solutions at RT; assay type: physicochemical
Method: A stock solution of 23 mg/mL γCD 5% glucose solution (w/v in water) was used to prepare working solutions containing 1 mg, 5 mg, 10 mg, 15 mg, 18 mg, 20 mg or 23 mg/mL γCD.
Approximately 50 mg of the melphalan flufenamide drug product (containing approximately 1 mg of melphalan flufenamide) was transferred to […] different 4 mL clear glass vials, followed by addition of 1 mL of a γCD working solution. The solutions were stirred for 5 minutes. The solutions were then filtered through a 0.45 μm PTFE filter. The filtrates were analysed by HPLC immediately after sample preparation (i.e. at t0), and then after 2 hours, 5 hours, 7 hours or 18 hours of storage at RT (approximately 23° C.).
HPLC analysis was performed using an Agilent 1260 series HPLC. Analyses were performed using a Poroshell column 3×50 mm EC-C18 column with a gradient of 5% to 97% acetonitrile, 0.1% formic acid over 3 min and a flow of 1 mL/min. An injection volume 0.2 μL was used. The melphalan flufenamide concentration in each sample was determined by HPLC analysis using a calibration curve for melphalan flufenamide.

[3] = assay type: physicochemical
Method: The samples were analysed after 0 h and the samples were stored at room temperature or in the fridge and analysed after 18 h. The remaining API (i.e. the remaining melphalan flufenamide) was reported relative to the area under the curve at t=0 h.
(§1) Analytical HPLC was carried out on an Agilent Series 1100 system using a Kinetex XB C18 (2.6 μm, 3.0×50 mm) column with 0.1% TFA in MiliQ H2O/MeCN as mobile phase (flow 1 mL/min). 5-97% MeCN in 3 minutes.

[4] = Stability of melphalan flufenamide infusion solution with and without γCD at 5° C.; assay type: physicochemical; conditions: for decrease of melphalan flufenamide content: infusion solution not comprising γCD
Method: A control infusion solution containing no γCD was prepared in accordance with the following method, which is in line with the protocol set out in the U.S. Prescribing Information (USPI) for PEPAXTO® dated February 2021:
An infusion solution containing γCD was prepared according to steps 1 to 5 above, except that step 2 included a step of adding 320 mg of γCD into each vial (i.e. 1:16 ratio w/w of melphalan flufenamide to γCD) followed by mixing the powders by vortex. Steps 3 to 5 were then carried out as set out above.
Immediately after preparation of each infusion solution, 4 mL was withdrawn from the infusion bag and the melphalan flufenamide content was determined by HPLC analysis. These samples represent each infusion solution at the start of the stability study (i.e. the to samples). Each infusion bag was then stored at 5° C. […] The melphalan flufenamide content of each sample was determined by HPLC analysis.
The melphalan flufenamide content of each sample of infusion solution was determined by HPLC analysis using the method described in Example 5.

[5] = Ex 1 lyophilised with HPγCD in different ratios: reconstitution and stability; assay type: physicochemical; conditions: HPγCD weight ratio 1:16, 1:20, 1:24 or 1:28, 20 hours at room temperature
Method: A 10 wt % solution of hydroxypropyl-γ-cyclodextrin (1750 mg) in t-BuOH/water 1:1 (15.75 g) and a 1:1 tBuOH/water solution were prepared. […] The solutions were lyophilized for 4 d.
The lyophilized material of entries 1 to 4 of Table 10 was reconstituted with 0.9% saline to make 0.5 mg/mL, 1.0 mg/mL and 2.0 mg/mL reconstituted solutions. The lyophilized material fully dissolved in each reconstituted solution. Portions of the 0.5 mg/mL, 1.0 mg/mL and 2.0 mg/mL reconstituted solutions were then diluted to 0.10 mg/mL in 0.9% saline (infusion concentration) and these 0.10 mg/mL solutions, and also a samples of the 0.5 mg/mL reconstituted solutions, were analyzed by HPLC after 0, 4 and 20 hours at room temperature.

[6] = Ex 1 lyophilised with HPγCD: reconstitution and stability at infusion concentration; assay type: physicochemical; conditions: for reconstitution concentration: lyophilised with HPγCD (1:67 w/w), 0.9% saline, fully dissolved
Method: The weight ratio (w/w) of melphalan flufenamide (free base):hydroxypropyl-γ-cyclodextrin was 1:67. The mixture was stirred for 30 min at room temperature before being lyophilized overnight. A white, fluffy lyo-cake was formed. The lyophilized material was kept refrigerated for 5 months. 0.9% saline (9000 μL) was added to the lyo-cake and the mixture was vortexed for 1 min. The material was fully dissolved to make a 3.0 mg/mL solution. […] The reconstituted solution was diluted to 0.10 mg/mL in 0.9% saline. […] The stability of the approved drug product […] at 0.10 mg/mL in 0.9% saline after 17 hours at room temperature is approximately 56%.

[7] = Stability of Ex 2 in glucose or saline with and without 16 mg/mL HPγCD at room temperature; assay type: physicochemical; conditions: 5 hours at room temperature
Method: Stock solutions of 16 mg/mL hydroxypropyl-γ-cyclodextrin in 5% glucose and in 0.9% saline were prepared. 20 mg/mL (free base) solution of the compound of Example 2 in propylene glycol was prepared.
To a 2 mL clear vial was added the amounts of each stock solution according to the Table 4 below.
The samples were stored at room temperature and analysed after 0, 2, 5 and 23 h on HPLC. The degradation of the compound was reported relative to the area under the curve at time=0 h. The percentage figure in Table 5 below represents the proportion of remaining compound of Ex 2.
as §1

[8] = Rate of dissolution of lyophilised Ex 1-excipient mixtures in 5% glucose solution, 15 seconds (HPLC); assay type: physicochemical; conditions: solution containing γCD
Method: (§2) A stock solution of each excipient was prepared in water (10 mg/mL). An aliquot of 400 μL (4 mg) of each stock solution was then transferred to a separate transparent 4 mL vial. The vials containing the stock solutions were then cooled and lyophilized using a Christ Alpha 2-4 LSC Plus instrument.
(§3) The mixtures were cooled and lyophilized overnight.
A 5% glucose solution (w/v in water) containing 0.08 mg/mL 3-methoxybenzoic as an internal standard was added to each vial containing a lyophilized Ex 1-excipient mixture. The vials were then mixed by shaking for 15 seconds. Approximately half of the solution was then transferred to a Whatman® Mini-UniPrep© syringeless filter and filtered according to the manufacturer's instructions. The filtrate was immediately transferred to a glass vial to prevent further dissolution.
HPLC analysis of each sample was performed using the same method as described in Example 1.

[9] = Solubility of Ex 1 in aqueous solution in the absence of an excipient; conditions: aqueous solution without excipient, water
[10] = Stability of lyophilised Ex 1-excipient mixtures in 5% glucose solution (HPLC); assay type: physicochemical; conditions: 25° C. to 30° C. for 22 hours
Method: The following excipients were used: trehalose dihydrate, sucrose, polysorbate 80, α-cyclodextrin, β-cyclodextrin, propylene glycol, 2-hydroxypropyl-β-cyclodextrin, and γCD.
as §2, §3
1 mL of a 5% glucose solution (w/v in water) containing 0.08 mg/mL 3-methoxybenzoic as an internal standard was added to each vial containing a lyophilized Ex 1-excipient mixture. The vials were then mixed by shaking for 15 seconds, and then shaken occasionally for 5 minutes. The solutions were transferred to Whatman® Mini-UniPrep® syringeless filters and filtered according to the manufacturer's instructions. The filtrate was transferred to a glass vial to prevent further dissolution. These filtrates represent the starting concentrations of melphalan flufenamide for each solution (i.e. the to samples). The to samples were analysed by HPLC as described below and then stored at 25° C. to 30° C. for 22 hours. […]

SMILES: [2H]C([2H])([2H])C([2H])([2H])OC(=O)[C@H](Cc1ccc(F)cc1)NC(=O)[C@@H](N)Cc1ccc(N(CCCl)CCCl)cc1 [Ex 2, (^2H5)ethyl (2S)-2-[(2S)-2-amino-3-{4-[bis(2-chloroethyl)amino]phenyl}propanamido]-3-(4-fluorophenyl)propanoate hydrochloride]
- stability of Ex 2 in control solutions ([1]; 6% propylene glycol and saline only or 6% propylene glycol and 5% glucose only): poor stability
- stability of Ex 2 in the presence of γCD ([1]; saline or 5% glucose solution, γCD about 16:1, 30:1, 80:1 w/w, hydrochloride): improved the stability

SMILES: CCOC(=O)[C@H](Cc1ccc(F)cc1)NC(=O)[C@@H](N)Cc1ccc(N(CCCl)CCCl)cc1 [melphalan flufenamide, ethyl (2S)-2-[[(2S)-2-amino-3-[4-[bis(2-chloroethyl)amino]phenyl]propanoyl]amino]-3-(4-fluorophenyl)propanoate]
- stabilisation by γCD ([2]; 1 to 23 equivalents of γCD (w/w), up to 18 hours): stabilised
- stability by γCD ratio ([2]; 15, 18 and 23 equivalents of γCD (w/w)): most stable
- melphalan flufenamide content retained ([3]; 0.2 mg/mL, HPγCD weight ratio 1:20, 1:24, 1:28, 1:32, 1:36 or 1:40, 18 hours at room temperature): over 78%
- melphalan flufenamide content retained ([3]; 0.2 mg/mL, HPγCD weight ratio 1:20 to 1:40, 18 hours in a fridge): over 93%
- melphalan flufenamide content retained ([3]; aqueous solution, HPγCD about 36:1 w/w, 18 hours at room temperature): 87%
- decrease of melphalan flufenamide content relative to t0 ([4]; control infusion solution without γCD, 43 hours at 5° C.): approximately 10%
- decrease of melphalan flufenamide content ([4]; 24 hours at 5° C.): approximately 7%
- decrease of melphalan flufenamide content ([4]; 24 hours at 5° C., listed as melflufen flufenamide): about 5%
- degradation rate ([4]; saline infusion solution comprising γCD, 5° C.): about 1 % per 24 hours
- decrease of melflufen flufenamide content ([4]; saline infusion solution not comprising γCD, 48 hours at 5° C.): about 8%
- decrease of melflufen flufenamide content ([4]; saline infusion solution with γCD, 24 hours at 5° C.): about 1%
- decrease of melflufen flufenamide content ([4]; saline infusion solution with γCD, 48 hours at 5° C.): about 2%
- melphalan flufenamide content retained ([5]; 0.1 mg/mL): over 80%
- melphalan flufenamide content retained ([5]; 0.5 mg/mL): > 90%
- reconstitution concentration [6]: up to 3.0 mg/mL
- average decrease of melflufen flufenamide content ([7]; saline infusion solution with hydroxypropyl-γCD): about 4%
- average decrease of melflufen flufenamide content ([7]; saline infusion solution without HPγCD): about 40%

SMILES: CCOC(=O)[C@H](Cc1ccc(F)cc1)NC(=O)[C@@H](N)Cc1ccc(N(CCCl)CCCl)cc1 [Ex 1, melphalan flufenamide hydrochloride]
- Ex 1 dissolved within the first 15 seconds of mixing [8]: 68%
- Ex 1 remaining ([6]; lyophilised with HPγCD 1:67 w/w, reconstituted 3.0 mg/mL, diluted to 0.10 mg/mL in 0.9% saline, 17 hours at room temperature): 91%
- reconstitution concentration ([6]; hydrochloride): 3.0 mg/mL and 3 mg/mL
- solubility [9]: < 400 µg/mL
- decrease of melphalan flufenamide content relative to t0 ([10]; solution with γCD): 31%
- Ex 1 remaining in solution ([10]; γCD 5% glucose solution, γCD:melphalan flufenamide about 4:1 w/w): 69%
